Measured values: patent US8178506B2, “Oligomeric compounds and compositions for use in modulation of small non-coding RNAs” (Regulus Therapeutics Inc., priority 2003, dated 2012)

Columns and labels:
[1] = tested on: BJ, B16-F10, T47D, T47Dp53 and HeLa cells; assay: Cell cycle assay (propidium iodide flow cytometry), cell line panel; assay type: cell-based; details: 150 nM, 72 hours (Table 29)
[2] = tested on: mir-143 miRNA binding site; assay: GFP mir-143 sensor reporter in T-REx-HeLa cells; assay type: cell-based, human; details: T-REx-HeLa, 24 hours post-transfection
Source text: Reporter systems have been developed herein to assess the ability of miRNA mimics to provoke a gene silencing response and to assess whether antisense oligomeric compounds targeting miRNAs can inhibit gene silencing activity. The T-REx™-HeLa cell line (Invitrogen Corp., Carlsbad, Calif.) was used for either stable or transient transfections with plasmids constitutively expressing miRNAs, pre-miRNAs, pri-miRNAs or mimics thereof, and, in some cases, antisense oligomeric compounds targeting the expressed miRNA were also transfected into the cells. It is understood that other mammalian cells lines can also be used in this reporter system. T-REx™-HeLa cells were routinely cultured in DMEM, high glucose (Invitrogen Corporation, Carlsbad, Calif.), supplemented with 10% fetal bovine serum (Invitrogen Corporation). […] Cells were harvested when they reached 90% confluence, and on the day before transfection with expression or reporter plasmids (described in detail below), the T-REx™-HeLa cells were seeded onto 24-well plates at 50,000 cells/well. The following day, cells were transfected according to standard published procedures with various combinations of plasmids using 2 μg Lipofectamine™ 2000 Reagent (Invitrogen) per μg of plasmid DNA. When transfecting oligomeric compounds, 1-3 μg of Lipofectamine™ 2000 Reagent was used per 100 nM oligomeric compound.
Plasmids used are as follows: The pcDNA3.1©/NT-GFP (Invitrogen) plasmid, containing a CMV promoter controlling expression of a GFP reporter sequence at the N-terminus of the transcription start site was used as a control plasmid. The pcDNA3.1©/NT-GFP-mir-143 sensor plasmid contains (in addition to the elements above) three 22-nucleotide sites encoding the mir-143 miRNA binding site, downstream of the GFP coding sequence and upstream of the polyadenylation signal. The pCR3-pri-mir-143 plasmid (“pri-mir-143”) is a CMV promoter-driven constitutive expression plasmid which expresses the 110-nucleotide mir-143 pri-miRNA sequence (SEQ ID NO: 38), to act as a mir-143 pri-miRNA mimic. The pCR3-pri-mir control (“pri-mir-control”) is a CMV promotor-driven constitutive expression plasmid which is designed to express a similar 110-nucleotide pri-miRNA sequence ([…] CAGC; SEQ ID NO: 862) wherein the mature mir-143 sequence has been replaced with an unrelated sequence and the predicted complementary strand opposite it within the pri-miRNA structure is replaced with a nearly complementary sequence in order to preserve the stem loop as well as the bulge structure of the natural mir-143 pri-miRNA. Additionally, in order to test the effect of an oligomeric compound targeting a miRNA, the T-REx™-HeLa cells were also transfected with the uniform 2′-MOE phosphorothioate (PS) antisense oligomeric compound ISIS Number 327901 (SEQ ID NO: 319), targeted to mir-143 previously described.
Twenty-four hours post-transfection, cells were trypsinized and GFP fluorescence was analyzed by flow cytometry.

Substance: CTAGTGGTCCTAAACATTTCAC (chemistry not given here) [ISIS 327878, uniform 2′-MOE PS; targets mir-203]
- percentage of cells in the G2/M phase [1]: increased percentage of cells in the G2/M phase
- percentage of cells with hypodiploid DNA content (subG1) [1]: increased percentage of cells with hypodiploid DNA content

Substance: ds-mir-143: double-stranded RNA of ISIS 342199 hybridized to its perfect complement ISIS 342200 (sense UGAGAUGAAGCACUGUAGCUCA; antisense UGAGCUACAGUGCUUCAUCUCA; RNA, backbone not given here)
- expression of GFP from the pcDNA3.1/NT-GFP-mir-143 sensor plasmid [2]: inhibited expression of GFP from the sensor plasmid in a dose dependent manner
